Assay results taken from the supplement of paper PMC10627819.

Legend:
Experiment in all cases: fitness (endpoint OD595 vs no drug) (fraction); higher = more growth
S. pneumoniae D39V = tested on: S. pneumoniae D39V
In short: (§1)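 Cultures at OD595 0.01 were dispensed into 384-well plates in TSB, LB Lennox or CY and incubated at 37 °C. Every 30 min for 14 h, OD595 was read and corrected by the first reading. Fitness is the optical density at entry into stationary phase relative to the robust mean of no-drug control wells, capped at 1.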

S. aureus Newman = tested on: S. aureus Newman
In short: as §1

B. subtilis 168 = tested on: B. subtilis 168
In short: as §1

S. aureus DSM 20231 = tested on: S. aureus DSM 20231
In short: as §1

CCCCCCCCCC(=O)N[C@@H](Cc1c[nH]c2ccccc12)C(=O)N[C@H](CC(N)=O)C(=O)N[C@@H](CC(=O)O)C(=O)N[C@@H]1C(=O)NCC(=O)N[C@@H](CCCN)C(=O)N[C@@H](CC(=O)O)C(=O)N[C@H](C)C(=O)N[C@@H](CC(=O)O)C(=O)NCC(=O)N[C@H](CO)C(=O)N[C@@H]([C@H](C)CC(=O)O)C(=O)N[C@@H](CC(=O)c2ccccc2N)C(=O)O[C@@H]1C [Daptomycin] + CC1=C(C(=O)O)N2C(=O)[C@@H](NC(=O)[C@H](N)c3ccccc3)[C@H]2SC1 [Cephalexin]
fitness, one replicate
Details	partner 0.125 µg/mL	partner 0.25 µg/mL	partner 0.5 µg/mL	partner 1 µg/mL
B. subtilis 168, first compound 0.25 µg/mL	–	–	–	0.956
B. subtilis 168, first compound 0.5 µg/mL	–	–	–	0.92
B. subtilis 168, first compound 1 µg/mL	–	0.763	0.741	0.766
S. pneumoniae D39V, first compound 1 µg/mL	0.903	0.898	0.896	–
S. pneumoniae D39V, first compound 2 µg/mL	0.922	0.857	0.891	–
S. pneumoniae D39V, first compound 4 µg/mL	0.977	0.878	0.887	–

fitness
Details	first compound 0.125 µg/mL	first compound 0.25 µg/mL	first compound 0.5 µg/mL	first compound 1 µg/mL	first compound 2 µg/mL	first compound 4 µg/mL
B. subtilis 168, partner 0.125 µg/mL	0.897	0.879	0.872	–	–	–
B. subtilis 168, partner 0.25 µg/mL	0.888	0.892	0.879	–	–	–
B. subtilis 168, partner 0.5 µg/mL	0.879	0.957	0.835	–	–	–
S. aureus Newman, partner 0.25 µg/mL	0.956	0.962	0.984	–	–	–
S. aureus Newman, partner 0.5 µg/mL	0.992	≥ 1	0.996	–	–	–
S. aureus Newman, partner 1 µg/mL	0.991	≥ 1	≥ 1	–	–	–
S. pneumoniae D39V, partner 1 µg/mL	–	–	–	0.452	0.479	0.449
S. pneumoniae D39V, partner 2 µg/mL	–	–	–	0.065	0.0675	0.0521
S. pneumoniae D39V, partner 4 µg/mL	–	–	–	0.0361	0.0644	0.0719

CCCCCCCCCC(=O)N[C@@H](Cc1c[nH]c2ccccc12)C(=O)N[C@H](CC(N)=O)C(=O)N[C@@H](CC(=O)O)C(=O)N[C@@H]1C(=O)NCC(=O)N[C@@H](CCCN)C(=O)N[C@@H](CC(=O)O)C(=O)N[C@H](C)C(=O)N[C@@H](CC(=O)O)C(=O)NCC(=O)N[C@H](CO)C(=O)N[C@@H]([C@H](C)CC(=O)O)C(=O)N[C@@H](CC(=O)c2ccccc2N)C(=O)O[C@@H]1C [Daptomycin] + CO/N=C(\C(=O)N[C@@H]1C(=O)N2C(C(=O)[O-])=C(C[N+]3(C)CCCC3)CS[C@H]12)c1csc(N)n1 [Cefepime]
fitness
Details	first compound 0.125 µg/mL	first compound 0.25 µg/mL	first compound 0.5 µg/mL	first compound 1 µg/mL	first compound 2 µg/mL	first compound 4 µg/mL
S. aureus DSM 20231, partner 0.125 µg/mL	–	–	0.846	0.938	0.934	–
S. aureus DSM 20231, partner 0.25 µg/mL	–	–	0.88	0.89	0.887	–
S. aureus DSM 20231, partner 0.5 µg/mL	–	–	0.869	0.877	0.844	–
S. aureus Newman, partner 0.125 µg/mL	0.935	0.941	0.967	–	–	–
S. aureus Newman, partner 0.25 µg/mL	0.854	0.874	0.874	–	–	–
S. aureus Newman, partner 0.5 µg/mL	0.8	0.797	0.799	–	–	–
S. pneumoniae D39V, partner 0.007 µg/mL	–	–	–	0.917	0.942	0.476
S. pneumoniae D39V, partner 0.0078 µg/mL	–	–	–	≥ 1	≥ 1	0.964
S. pneumoniae D39V, partner 0.014 µg/mL	–	–	–	0.887	0.938	0.57
S. pneumoniae D39V, partner 0.0155 µg/mL	–	–	–	0.982	≥ 1	0.965
S. pneumoniae D39V, partner 0.028 µg/mL	–	–	–	0.813	0.82	0.48
S. pneumoniae D39V, partner 0.031 µg/mL	–	–	–	0.584	0.606	0.599

CCCCCCCCCC(=O)N[C@@H](Cc1c[nH]c2ccccc12)C(=O)N[C@H](CC(N)=O)C(=O)N[C@@H](CC(=O)O)C(=O)N[C@@H]1C(=O)NCC(=O)N[C@@H](CCCN)C(=O)N[C@@H](CC(=O)O)C(=O)N[C@H](C)C(=O)N[C@@H](CC(=O)O)C(=O)NCC(=O)N[C@H](CO)C(=O)N[C@@H]([C@H](C)CC(=O)O)C(=O)N[C@@H](CC(=O)c2ccccc2N)C(=O)O[C@@H]1C [Daptomycin] + CO[C@@]12[C@H](COC(N)=O)C3=C(C(=O)C(C)=C(N)C3=O)N1C[C@@H]1N[C@@H]12 [Mitomycin C]
fitness
Details	first compound 0.125 µg/mL	first compound 0.25 µg/mL	first compound 0.5 µg/mL	first compound 1 µg/mL	first compound 2 µg/mL	first compound 4 µg/mL
S. aureus DSM 20231, partner 0.0156 µg/mL	–	–	0.773	0.809	0.769	–
S. aureus DSM 20231, partner 0.0312 µg/mL	–	–	0.791	0.778	0.744	–
S. aureus DSM 20231, partner 0.0625 µg/mL	–	–	0.648	0.6	0.595	–
S. aureus Newman, partner 0.0156 µg/mL	0.775	0.778	0.773	–	–	–
S. aureus Newman, partner 0.0312 µg/mL	0.702	0.692	0.688	–	–	–
S. aureus Newman, partner 0.0625 µg/mL	0.57	0.54	0.545	–	–	–
S. pneumoniae D39V, partner 0.001075 µg/mL	–	–	–	0.897	0.905	0.94
S. pneumoniae D39V, partner 0.002 µg/mL	–	–	–	0.771	0.776	0.739
S. pneumoniae D39V, partner 0.00215 µg/mL	–	–	–	0.849	0.841	0.842
S. pneumoniae D39V, partner 0.004 µg/mL	–	–	–	0.617	0.558	0.504
S. pneumoniae D39V, partner 0.0043 µg/mL	–	–	–	0.719	0.723	0.723
S. pneumoniae D39V, partner 0.008 µg/mL	–	–	–	0.285	0.307	0.242
